Data: patent US20260215425A1, “NITRIFICATION INHIBITORS” (The University of Melbourne, priority 2022, published 2026)

Legend:
N. europaea = assay: standard nitrification inhibition assay (NO2- production, Griess); format: cell-based, Nitrosomonas europaea; conditions: [NH4+]=3 mM, [inhibitor]=0.3 mM (10 mol %), pH 7.5, 30° C., 60 min
Method: (§1) Cells of N. multiformis and N. europaea were cultivated to the mid-exponential growth phase (OD600=0.1, [NO2^−] approximately 800 μM) and harvested by filtration onto 0.2 μm membrane filters (Mixed Cellulose Ester (MCE), Sigma Aldrich). The cells were washed with 2×100 mL of 0.1 M sodium phosphate buffer (NaPB), containing 0.2 mM MgSO4 at pH 7.5. The cells were washed from the filter paper by transferring it to a sterile 50 mL tube and resuspending in NaPB (15 mL), followed by 5 s of vortexing (Ratek, Australia) and 3 s of sonication (Vevor, Australia). […] Experiments were performed in triplicate.
(§2) In a deep 96-well plate (2 mL capacity), 980 μL of the bacterial inoculum (OD600=0.03) was added to the inhibitor (10 μL, 30 mmol L^−1 in Milli-Q water), the solutions were mixed thoroughly and pre-incubated in the dark for 5 minutes at 100 rpm and 30° C. (NH4)2SO4 (10 μL, 150 mM, from a prepared sterile solution containing 19.8 g L^−1 (NH4)2SO4 in Milli-Q water) was then added using a multi-channel pipette. The plate was covered with a with an O2 permeable membrane to ensure aeration (Breathe-Easy® sealing membrane, Sigma Aldrich) and incubated in a temperature-regulated rotary incubator (Ratek, Australia) in the dark for 60 minutes at 30° C. and 100 rpm. An aliquot of the reaction solution ([…]) was transferred to a 96-well spectrophotometric plate to which 50 µL of Griess reagent was added. The colour was allowed to develop for 15 minutes at room temperature, and the absorbance was measured at 540 nm. Each assay was accompanied by control treatments to determine the 0% and 100% NO2 signal. The percentage inhibition was calculated according to eqn. 1 from the NO2 production of the cells in NaPB (i) without additive (‘untreated cells’: 0% signal), (ii) with [NH4^+]=3 mM (‘uninhibited’ cells: 100% signal) and (iii) with [NH4^+]=3 mM and [inhibitor]=0.3 mM and 0.03 mM (10 mol % and 1 mol % of [NH4^+], ‘inhibited cells’). Experiments were performed in triplicate.

N. multiformis = assay: as above; format: cell-based, Nitrosospira multiformis; conditions: [NH4+]=3 mM, [inhibitor]=0.3 mM (10 mol %), pH 7.5, 30° C., 60 min
Method: as §1, §2

soil A = assay: soil incubation, NH4+ and NO3- in soil A; conditions: 5 mol % of applied fertiliser-N, 21 days
Method: Soils used in these studies were air-dried, ground and sieved (2 mm) prior to use. Soil microcosm incubations were carried out in 250 mL polypropylene specimen containers (Sarstedt, Germany), containing 20 g oven dry-weight equivalent of soil. Microcosms were treated with half the volume of water required to meet the desired water-filled pore space (WFPS %) of 60% and pre-incubated at 25° C. for seven days to revive soil microbial activity. Following pre-incubation, the remaining volume to reach the WFPS % was applied as one of the treatment solutions: (1) fertiliser ((NH4)2SO4,) 100 mg kg^−1, (2) fertiliser+0.5 mol % 4-MPT, (3) fertiliser+2.5 mol % 4-MPT, (4) fertiliser+5 mol % 4-MPT or (5) fertiliser+5 mol % compound 1, with three replicates of each treatment per time interval (n=3). Throughout the incubation period soil microcosms were kept aerated by removing the lid for 10 minutes every 2-3 days to allow gas exchange, and moisture levels were replenished via addition of Milli-Q water as required. At the end of the desired incubation period (i.e., after 0, 3, 7, 14, and 21 days, respectively), soil microcosms were removed and destructively sampled by treating with 2 M aqueous potassium chloride solution (KCl, 100 mL) and shaking for 1 h. Soil-KCl solutions were filtered (Whatman No. 42), and the filtrates were stored at −20° C. until the conclusion of the experiment, when all KCl extracts were analysed for the concentration of soil mineral nitrogen from ammonium (NH4^+—N) and from nitrate (NO3^−—N; the conversion of NO2 to NO3^− in soils is very rapid) after appropriate dilutions using Segmented Flow Analysis (San++, Skalar, Breda, The Netherlands). Results are reported as the mean of three replicates, errors reported are standard errors of the mean. Errors associated with raw data were carried through calculations using standard error propagation protocols.
To determine the nitrification inhibitory effect of 4-MPT in vivo, soil incubations were performed by measuring concentration-time profiles for NH4^+ and NO3^− in an acidic Australian soil (soil A, pH=5.9) over 21 days. 4-MPT was tested at three different concentrations (0.5 mol %, 2.5 mol % and 5 mol % of applied fertiliser-N) and compared with the alkyl-substituted compound 1 (5 mol % of applied fertiliser-N) to confirm the requirement of the N-propargyl substitutent for inhibitory activity (FIG. 5).

CCCn1cc(C)nn1 [Compound 1, 4-Methyl-1-(n-propyl)-1H-1,2,3-triazole]
% Inhibition NE (N. europaea): complete loss of inhibitory activity | % Inhibition NM (N. multiformis): complete loss of inhibitory activity | NH4+ loss / conversion in soil (soil A): negligible levels of NH4^+ remaining after 21 days of incubation
